Data as given in PubChem BioAssay AID1963832 (Molecular Pharmacology Branch, DTP, NCI, 2024).
pIC50: −log10 of the molar value.

Test system: 885724-159-R-J1-PDC complex spheroid viability
Assay: Anticancer human tumor 885724-159-R-J1-PDC patient-derived pancreatic adenocarcinoma cell line growth inhibition [POLQ]
Conditions: for pIC50: curve of first compound; for viability, T/C: stronger effect = lower value; active means viability on the fitted dose curve at most 10% of control; inactive means the rest
Summary of the method: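 Growth inhibition in 3D: complex spheroids (tumor PDC, HUVEC, MSC) treated with POLQ inhibitor combinations; where Cmax unknown, highest tested concentration 10 microM, except SN-38 at 1 microM.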

[1] = second compound 0.0316 µM, first compound 0.0316 µM
[2] = second compound 0.0316 µM, first compound 0.1 µM
[3] = second compound 0.0316 µM, first compound 0.316 µM
[4] = second compound 0.0316 µM, first compound 1 µM
[5] = second compound 0.0316 µM, first compound 3.16 µM
[6] = second compound 0.0316 µM, first compound 10 µM
[7] = second compound 0.1 µM, first compound 0.0316 µM
[8] = second compound 0.1 µM, first compound 0.1 µM
[9] = second compound 0.1 µM, first compound 0.316 µM
[10] = second compound 0.1 µM, first compound 1 µM
[11] = second compound 0.1 µM, first compound 3.16 µM
[12] = second compound 0.1 µM, first compound 10 µM
[13] = second compound 0.316 µM, first compound 0.0316 µM
[14] = second compound 0.316 µM, first compound 0.1 µM
[15] = second compound 0.316 µM, first compound 0.316 µM
[16] = second compound 0.316 µM, first compound 1 µM
[17] = second compound 0.316 µM, first compound 3.16 µM
[18] = second compound 0.316 µM, first compound 10 µM
[19] = second compound 1 µM, first compound 0.0316 µM
[20] = second compound 1 µM, first compound 0.1 µM
[21] = second compound 1 µM, first compound 0.316 µM
[22] = second compound 1 µM, first compound 1 µM
[23] = second compound 1 µM, first compound 3.16 µM
[24] = second compound 1 µM, first compound 10 µM
[25] = second compound 3.16 µM, first compound 0.0316 µM
[26] = second compound 3.16 µM, first compound 0.1 µM
[27] = second compound 3.16 µM, first compound 0.316 µM
[28] = second compound 3.16 µM, first compound 1 µM
[29] = second compound 3.16 µM, first compound 3.16 µM
[30] = second compound 3.16 µM, first compound 10 µM
[31] = second compound 10 µM, first compound 0.0316 µM
[32] = second compound 10 µM, first compound 0.1 µM
[33] = second compound 10 µM, first compound 0.316 µM
[34] = second compound 10 µM, first compound 1 µM
[35] = second compound 10 µM, first compound 3.16 µM
[36] = second compound 10 µM, first compound 10 µM
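Further: spheroids exposed to compounds for 7 days.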

CCc1cc2c(N3CCc4c(cc(Cn5ccnc5)cc4-c4cn(C)nc4C(F)(F)F)C3=O)cc(C)nc2c(OC)n1 + Nc1ccc(C#CCN(C(=O)Cc2ncc(C(F)(F)F)cc2C(F)(F)F)c2ccc(F)cc2)nn1
inactive: viability, T/C [1] 84.1% | viability, T/C [2] 82.4% | viability, T/C [3] 79.4% | viability, T/C [4] 79.3% | viability, T/C [5] 75.8% | viability, T/C [6] 69.2% | viability, T/C [7] 91.8% | viability, T/C [8] 87.3% | viability, T/C [9] 75.8% | viability, T/C [10] 77.1% | viability, T/C [11] 70.9% | viability, T/C [12] 60.3% | viability, T/C [13] 86.7% | viability, T/C [14] 84.8% | viability, T/C [15] 82.2% | viability, T/C [16] 85.2% | viability, T/C [17] 69.5% | viability, T/C [18] 69.7% | viability, T/C [19] 89% | viability, T/C [20] 90.9% | viability, T/C [21] 78.3% | viability, T/C [22] 71.8% | viability, T/C [23] 73.1% | viability, T/C [24] 67.2% | viability, T/C [25] 79.3% | viability, T/C [26] 72% | viability, T/C [27] 78.3% | viability, T/C [28] 85.4% | viability, T/C [29] 75.2% | viability, T/C [30] 69.8% | viability, T/C [31] 88% | viability, T/C [32] 88% | viability, T/C [33] 85.2% | viability, T/C [34] 76.8% | viability, T/C [35] 89.9% | viability, T/C [36] 73%
< 5.00: pIC50 (second compound 0.0316 µM) | pIC50 (second compound 0.1 µM) | pIC50 (second compound 0.316 µM) | pIC50 (second compound 1 µM) | pIC50 (second compound 3.16 µM) | pIC50 (second compound 10 µM)

COc1cc2cc(C(=O)CCC(=O)O)sc2cc1OC + Nc1ccc(C#CCN(C(=O)Cc2ncc(C(F)(F)F)cc2C(F)(F)F)c2ccc(F)cc2)nn1
< 5.00: pIC50 (second compound 0.0316 µM) | pIC50 (second compound 0.1 µM) | pIC50 (second compound 0.316 µM) | pIC50 (second compound 1 µM) | pIC50 (second compound 3.16 µM) | pIC50 (second compound 10 µM)
inactive: viability, T/C [1] 96.1% | viability, T/C [2] 105% | viability, T/C [3] 98.3% | viability, T/C [4] 108% | viability, T/C [5] 107% | viability, T/C [6] 100% | viability, T/C [7] 103% | viability, T/C [8] 106% | viability, T/C [9] 98.8% | viability, T/C [10] 95.7% | viability, T/C [11] 101% | viability, T/C [12] 88.8% | viability, T/C [13] 101% | viability, T/C [14] 95.3% | viability, T/C [15] 90% | viability, T/C [16] 109% | viability, T/C [17] 97.6% | viability, T/C [18] 86.3% | viability, T/C [19] 94.9% | viability, T/C [20] 95.2% | viability, T/C [21] 94.4% | viability, T/C [22] 92.4% | viability, T/C [23] 103% | viability, T/C [24] 88.9% | viability, T/C [25] 91.1% | viability, T/C [26] 94.5% | viability, T/C [27] 103% | viability, T/C [28] 94.1% | viability, T/C [29] 104% | viability, T/C [30] 86.4% | viability, T/C [31] 107% | viability, T/C [32] 97.3% | viability, T/C [33] 92.7% | viability, T/C [34] 96.8% | viability, T/C [35] 114% | viability, T/C [36] 96%

O=C(Nc1ccc(O)c(NS(=O)(=O)c2ccc(F)cc2)c1)c1ccc(-c2ccccc2)cc1 + Nc1ccc(C#CCN(C(=O)Cc2ncc(C(F)(F)F)cc2C(F)(F)F)c2ccc(F)cc2)nn1
inactive: viability, T/C [1] 97.8% | viability, T/C [2] 94.2% | viability, T/C [3] 97.4% | viability, T/C [4] 97.6% | viability, T/C [5] 110% | viability, T/C [6] 93.3% | viability, T/C [7] 102% | viability, T/C [8] 95.3% | viability, T/C [9] 112% | viability, T/C [10] 101% | viability, T/C [11] 111% | viability, T/C [12] 96.4% | viability, T/C [13] 103% | viability, T/C [14] 93.2% | viability, T/C [15] 94.7% | viability, T/C [16] 103% | viability, T/C [17] 110% | viability, T/C [18] 93.4% | viability, T/C [19] 110% | viability, T/C [20] 99.4% | viability, T/C [21] 78.1% | viability, T/C [22] 98.3% | viability, T/C [23] 101% | viability, T/C [24] 92.1% | viability, T/C [25] 97.1% | viability, T/C [26] 91% | viability, T/C [27] 87.3% | viability, T/C [28] 104% | viability, T/C [29] 108% | viability, T/C [30] 95.7% | viability, T/C [31] 91.2% | viability, T/C [32] 98.4% | viability, T/C [33] 103% | viability, T/C [34] 98.6% | viability, T/C [35] 108% | viability, T/C [36] 86.4%
< 5.00: pIC50 (second compound 0.0316 µM) | pIC50 (second compound 0.1 µM) | pIC50 (second compound 0.316 µM) | pIC50 (second compound 1 µM) | pIC50 (second compound 3.16 µM) | pIC50 (second compound 10 µM)
